Drawing on BindingDB's records for doi:10.1021/jm050205o (Abbott Laboratories, 2005), this text covers IC50 for four molecules.

This assay has as its target T1, Glucocorticoid receptor (Homo sapiens, UniProt P04150).
T1 sequence (P04150 whole entry): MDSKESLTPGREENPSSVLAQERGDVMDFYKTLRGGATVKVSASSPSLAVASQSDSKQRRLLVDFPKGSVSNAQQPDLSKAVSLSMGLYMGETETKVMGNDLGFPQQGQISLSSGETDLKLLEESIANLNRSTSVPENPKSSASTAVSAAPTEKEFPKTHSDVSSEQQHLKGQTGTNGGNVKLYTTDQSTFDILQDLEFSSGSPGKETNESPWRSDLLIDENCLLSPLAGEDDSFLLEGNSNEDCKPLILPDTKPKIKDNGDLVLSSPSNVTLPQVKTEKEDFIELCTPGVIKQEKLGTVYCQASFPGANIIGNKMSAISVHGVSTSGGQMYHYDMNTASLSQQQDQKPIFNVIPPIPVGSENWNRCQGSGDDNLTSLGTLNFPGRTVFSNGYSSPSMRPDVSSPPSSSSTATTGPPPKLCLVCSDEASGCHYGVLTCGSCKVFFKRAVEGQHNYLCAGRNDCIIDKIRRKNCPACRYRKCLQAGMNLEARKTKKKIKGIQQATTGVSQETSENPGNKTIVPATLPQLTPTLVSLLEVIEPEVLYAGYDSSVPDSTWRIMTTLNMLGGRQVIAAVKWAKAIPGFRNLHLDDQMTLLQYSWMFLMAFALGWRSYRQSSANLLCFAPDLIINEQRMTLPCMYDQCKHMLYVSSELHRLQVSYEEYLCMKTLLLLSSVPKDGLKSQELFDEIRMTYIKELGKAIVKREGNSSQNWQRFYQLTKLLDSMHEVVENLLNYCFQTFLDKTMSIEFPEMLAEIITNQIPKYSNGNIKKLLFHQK
The experiment in a line: GR Binding Assay and GRAF Assay. As to conditions: pH 8; 4 °C.
Consider `Cc1c(NS(C)(=O)=O)cccc1N(Cc1ccc(Oc2ccc(Br)c(OCC(=O)O)c2)cc1)Cc1ccc(F)cc1F` [2-{2-bromo-5-[4-({[(2,4-difluorophenyl)methyl](3-methanesulfonamido-2-methylphenyl)amino}methyl)phenoxy]phenoxy}acetic acid], for which the IC50 – broadly, the concentration needed to halve the response being measured – amounted to 330 nM. The figure for `Cc1c(NS(C)(=O)=O)cccc1N(Cc1ccc(Oc2ccc(Cl)c(OCC(=O)O)c2)cc1)Cc1ccc(F)cc1F` [2-{2-chloro-5-[4-({[(2,4-difluorophenyl)methyl](3-methanesulfonamido-2-methylphenyl)amino}methyl)phenoxy]phenoxy}acetic acid] is 500 nM. The molecule `Cc1c(NS(C)(=O)=O)cccc1N(Cc1ccc(Oc2ccc(F)c(OCC(=O)O)c2)cc1)Cc1ccc(F)cc1F` [2-{5-[4-({[(2,4-difluorophenyl)methyl](3-methanesulfonamido-2-methylphenyl)amino}methyl)phenoxy]-2-fluorophenoxy}acetic acid] showed an IC50 of 440 nM. Molecule `CC#C[C@]1(O)CC[C@H]2[C@@H]3CCC4=CC(=O)CC[C@]4(Cc4ccc(C)cc4)C3=CC[C@@]21C` [(2R,10S,11S,14S,15S)-14-hydroxy-15-methyl-2-[(4-methylphenyl)methyl]-14-(prop-1-yn-1-yl)tetracyclo[8.7.0.0^{2,7}.0^{11,15}]heptadeca-1(17),6-dien-5-one] showed an IC50 of 43 nM.
